Results published in patent US20260130395A1, “Water Dispersible Botanical Compositions” (Aquila Black Limited, priority 2021, published 2026).

Test: Stability of cannabinoid entourage and Vitamin E components of the powder concentrate by LCMSMS
Type: physicochemical
Conditions: powder stored at 21-25° C.
Protocol: At each time period, 0.05 g of powder was dissolved in 10 ml-15 of ethanol, diluted to fall within the analytical range, and injected into the LCMSMS for analysis.

Row | SMILES | Stability of Plant-Derived Cannabinoid Compounds in Powder Concentrate (0 days) [mg/g powder] | Stability of Plant-Derived Cannabinoid Compounds in Powder Concentrate (1 days) [mg/g powder] | Stability of Plant-Derived Cannabinoid Compounds in Powder Concentrate (2 days) [mg/g powder] | Stability of Plant-Derived Cannabinoid Compounds in Powder Concentrate (3 days) [mg/g powder] | Stability of Plant-Derived Cannabinoid Compounds in Powder Concentrate (5 days) [mg/g powder] | Stability of Plant-Derived Cannabinoid Compounds in Powder Concentrate (8 days) [mg/g powder] | Stability of Plant-Derived Cannabinoid Compounds in Powder Concentrate (9 days) [mg/g powder] | Stability of Plant-Derived Cannabinoid Compounds in Powder Concentrate (10 days) [mg/g powder] | Stability of Plant-Derived Cannabinoid Compounds in Powder Concentrate (11 days) [mg/g powder] | Stability of Plant-Derived Cannabinoid Compounds in Powder Concentrate (12 days) [mg/g powder] | Stability of Plant-Derived Cannabinoid Compounds in Powder Concentrate (15 days) [mg/g powder] | Stability of Plant-Derived Cannabinoid Compounds in Powder Concentrate (16 days) [mg/g powder] | Stability of Plant-Derived Cannabinoid Compounds in Powder Concentrate (17 days) [mg/g powder] | Stability of Plant-Derived Cannabinoid Compounds in Powder Concentrate (18 days) [mg/g powder] | Stability of Plant-Derived Cannabinoid Compounds in Powder Concentrate (19 days) [mg/g powder] | Stability of Plant-Derived Cannabinoid Compounds in Powder Concentrate (22 days) [mg/g powder] | Stability of Plant-Derived Cannabinoid Compounds in Powder Concentrate (23 days) [mg/g powder] | Stability of Plant-Derived Cannabinoid Compounds in Powder Concentrate (24 days) [mg/g powder] | Stability of Plant-Derived Cannabinoid Compounds in Powder Concentrate (25 days) [mg/g powder] | Stability of Plant-Derived Cannabinoid Compounds in Powder Concentrate (26 days) [mg/g powder] | also measured
1 | CCCCCc1cc2c(c(O)c1C(=O)O)[C@@H]1C=C(C)CC[C@H]1C(C)(C)O2 [D9 THCA, delta-9-tetrahydrocannabinolic acid] | 0.150 | 0.150 | 0.147 | 0.150 | 0.146 | 0.156 | 0.151 | 0.148 | 0.145 | 0.152 | 0.151 | 0.157 | 0.156 | 0.149 | 0.146 | 0.150 | 0.147 | 0.150 | 0.150 | 0.150 | Stability of Plant-Derived Cannabinoid Compounds in Powder Concentrate (29 days): 0.152 mg/g powder; Stability of Plant-Derived Cannabinoid Compounds in Powder Concentrate (30 days): 0.151 mg/g powder; Stability of Plant-Derived Cannabinoid Compounds in Powder Concentrate (60 days): 0.146 mg/g powder; Stability of Plant-Derived Cannabinoid Compounds in Powder Concentrate (90 days): 0.147 mg/g powder; Stability of Plant-Derived Cannabinoid Compounds in Powder Concentrate (120 days): 0.147 mg/g powder; Stability of Plant-Derived Cannabinoid Compounds in Powder Concentrate (150 days): 0.153 mg/g powder; Stability of Plant-Derived Cannabinoid Compounds in Powder Concentrate (180 days): 0.154 mg/g powder; Stability of Plant-Derived Cannabinoid Compounds in Powder Concentrate (210 days): 0.151 mg/g powder; Stability of Plant-Derived Cannabinoid Compounds in Powder Concentrate (240 days): 0.148 mg/g powder; Stability of Plant-Derived Cannabinoid Compounds in Powder Concentrate (270 days): 0.148 mg/g powder; Stability of Plant-Derived Cannabinoid Compounds in Powder Concentrate (300 days): 0.156 mg/g powder; Stability of Plant-Derived Cannabinoid Compounds in Powder Concentrate (330 days): 0.156 mg/g powder; Stability of Plant-Derived Cannabinoid Compounds in Powder Concentrate (360 days): 0.155 mg/g powder; Stability of Plant-Derived Cannabinoid Compounds in Powder Concentrate (390 days): 0.153 mg/g powder; Stability of Plant-Derived Cannabinoid Compounds in Powder Concentrate (420 days): 0.154 mg/g powder; Stability of Plant-Derived Cannabinoid Compounds in Powder Concentrate (450 days): 0.155 mg/g powder; Stability of Plant-Derived Cannabinoid Compounds in Powder Concentrate (480 days): 0.149 mg/g powder; Stability of Plant-Derived Cannabinoid Compounds in Powder Concentrate (510 days): 0.154 mg/g powder; Stability of Plant-Derived Cannabinoid Compounds in Powder Concentrate (540 days): 0.154 mg/g powder; Stability of Plant-Derived Cannabinoid Compounds in Powder Concentrate (570 days): 0.148 mg/g powder
2 | CCCCCc1cc(O)c2c(c1)OC1(C)CCC3C1C2C3(C)C (centres unmarked) [CBL, cannabicyclol] | 0.050 | 0.051 | 0.049 | 0.050 | 0.052 | 0.050 | 0.050 | 0.050 | 0.052 | 0.052 | 0.048 | 0.049 | 0.049 | 0.052 | 0.052 | 0.051 | 0.051 | 0.050 | 0.050 | 0.051 | Stability of Plant-Derived Cannabinoid Compounds in Powder Concentrate (29 days): 0.048 mg/g powder; Stability of Plant-Derived Cannabinoid Compounds in Powder Concentrate (30 days): 0.051 mg/g powder; Stability of Plant-Derived Cannabinoid Compounds in Powder Concentrate (60 days): 0.050 mg/g powder; Stability of Plant-Derived Cannabinoid Compounds in Powder Concentrate (90 days): 0.050 mg/g powder; Stability of Plant-Derived Cannabinoid Compounds in Powder Concentrate (120 days): 0.048 mg/g powder; Stability of Plant-Derived Cannabinoid Compounds in Powder Concentrate (150 days): 0.050 mg/g powder; Stability of Plant-Derived Cannabinoid Compounds in Powder Concentrate (180 days): 0.049 mg/g powder; Stability of Plant-Derived Cannabinoid Compounds in Powder Concentrate (210 days): 0.052 mg/g powder; Stability of Plant-Derived Cannabinoid Compounds in Powder Concentrate (240 days): 0.049 mg/g powder; Stability of Plant-Derived Cannabinoid Compounds in Powder Concentrate (270 days): 0.051 mg/g powder; Stability of Plant-Derived Cannabinoid Compounds in Powder Concentrate (300 days): 0.050 mg/g powder; Stability of Plant-Derived Cannabinoid Compounds in Powder Concentrate (330 days): 0.049 mg/g powder; Stability of Plant-Derived Cannabinoid Compounds in Powder Concentrate (360 days): 0.050 mg/g powder; Stability of Plant-Derived Cannabinoid Compounds in Powder Concentrate (390 days): 0.052 mg/g powder; Stability of Plant-Derived Cannabinoid Compounds in Powder Concentrate (420 days): 0.050 mg/g powder; Stability of Plant-Derived Cannabinoid Compounds in Powder Concentrate (450 days): 0.052 mg/g powder; Stability of Plant-Derived Cannabinoid Compounds in Powder Concentrate (480 days): 0.051 mg/g powder; Stability of Plant-Derived Cannabinoid Compounds in Powder Concentrate (510 days): 0.050 mg/g powder; Stability of Plant-Derived Cannabinoid Compounds in Powder Concentrate (540 days): 0.048 mg/g powder; Stability of Plant-Derived Cannabinoid Compounds in Powder Concentrate (570 days): 0.050 mg/g powder
